{"source": "the supplement of paper PMC10307832", "assay_in_all_cases": "relative viability (nuclei count vs DMSO), 5 days (fraction); higher = more cells survive", "key": {"[1]": {"test_system": "HCC-15", "outline": "(§1)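 Values are medians from duplicate plates. Each reflects relative viability, defined as the nuclei count of treated wells over that of vehicle wells. Lung cancer cell lines in 1536-well plates were pin-tool dosed one day after seeding with one drug alone or with a fixed anchor-drug dose plus five library-drug doses (not always all listed) in √10 steps, then fixed, stained and imaged at 4× after 5 days.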"}, "[2]": {"test_system": "HARA", "outline": "as §1"}, "[3]": {"test_system": "NCI-H1755", "outline": "as §1"}, "[4]": {"test_system": "COR-L23", "outline": "as §1"}, "[5]": {"test_system": "NCI-H1793", "outline": "as §1"}, "[6]": {"test_system": "NCI-H2009", "outline": "as §1"}, "[7]": {"test_system": "NCI-H1993", "outline": "as §1"}, "[8]": {"test_system": "NCI-H2347", "outline": "as §1"}, "[9]": {"test_system": "NCI-H1734", "outline": "as §1"}, "[10]": {"test_system": "NCI-H522", "outline": "as §1"}, "[11]": {"test_system": "NCI-H358", "outline": "as §1"}, "[12]": {"test_system": "NCI-H2228", "outline": "as §1"}, "[13]": {"test_system": "HOP-62", "outline": "as §1"}, "[14]": {"test_system": "NCI-H1792", "outline": "as §1"}, "[15]": {"test_system": "NCI-H838", "outline": "as §1"}, "[16]": {"test_system": "SK-MES-1", "outline": "as §1"}, "[17]": {"test_system": "UMC-11", "outline": "as §1"}, "[18]": {"test_system": "NCI-H1395", "outline": "as §1"}, "[19]": {"test_system": "NCI-H1355", "outline": "as §1"}, "[20]": {"test_system": "NCI-H2170", "outline": "as §1"}, "[21]": {"test_system": "NCI-H647", "outline": "as §1"}, "[22]": {"test_system": "COR-L 105", "outline": "as §1"}}, "data": [{"smiles": "O=c1cc(N2CCOCC2)oc2c(-c3cccc4c3sc3ccccc34)cccc12", "note": "+ O=C(c1cc(Cc2n[nH]c(=O)c3ccccc23)ccc1F)N1CCN(C(=O)C2CC2)CC1 [Olaparib] (partner 8 µM)", "values": [{"measurement": "relative viability", "setting": "[1]; first compound 0.01 µM", "value": 0.692}, {"measurement": "relative viability", "setting": "[1]; first compound 0.03162 µM", "value": 0.742}, {"measurement": "relative viability", "setting": "[1]; first compound 0.1 µM", "value": 0.775}, {"measurement": "relative viability", "setting": "[1]; first compound 0.3162 µM", "value": 0.74}, {"measurement": "relative viability", "setting": "[1]; first compound 1 µM", "value": 0.735}, {"measurement": "relative viability", "setting": "[2]; first compound 0.01 µM", "value": 0.762}, {"measurement": "relative viability", "setting": "[2]; first compound 0.03162 µM", "value": 1.01}, {"measurement": "relative viability", "setting": "[2]; first compound 0.1 µM", "value": 0.884}, {"measurement": "relative viability", "setting": "[2]; first compound 0.3162 µM", "value": 0.972}, {"measurement": "relative viability", "setting": "[2]; first compound 1 µM", "value": 0.792}, {"measurement": "relative viability", "setting": "[3]; first compound 0.01 µM", "value": 0.896}, {"measurement": "relative viability", "setting": "[3]; first compound 0.03162 µM", "value": 0.891}, {"measurement": "relative viability", "setting": "[3]; first compound 0.1 µM", "value": 0.869}, {"measurement": "relative viability", "setting": "[3]; first compound 0.3162 µM", "value": 0.848}, {"measurement": "relative viability", "setting": "[3]; first compound 1 µM", "value": 0.883}, {"measurement": "relative viability", "setting": "[4]; first compound 0.01 µM", "value": 0.394}, {"measurement": "relative viability", "setting": "[4]; first compound 0.03162 µM", "value": 0.352}, {"measurement": "relative viability", "setting": "[4]; first compound 0.1 µM", "value": 0.327}, {"measurement": "relative viability", "setting": "[4]; first compound 0.3162 µM", "value": 0.318}, {"measurement": "relative viability", "setting": "[4]; first compound 1 µM", "value": 0.37}, {"measurement": "relative viability", "setting": "[5]; first compound 0.01 µM", "value": 0.77}, {"measurement": "relative viability", "setting": "[5]; first compound 0.03162 µM", "value": 0.857}, {"measurement": "relative viability", "setting": "[5]; first compound 0.1 µM", "value": 0.928}, {"measurement": "relative viability", "setting": "[5]; first compound 0.3162 µM", "value": 0.657}, {"measurement": "relative viability", "setting": "[5]; first compound 1 µM", "value": 0.738}, {"measurement": "relative viability", "setting": "[6]; first compound 0.01 µM", "value": 0.718}, {"measurement": "relative viability", "setting": "[6]; first compound 0.03162 µM", "value": 0.651}, {"measurement": "relative viability", "setting": "[6]; first compound 0.1 µM", "value": 0.592}, {"measurement": "relative viability", "setting": "[6]; first compound 0.3162 µM", "value": 0.652}, {"measurement": "relative viability", "setting": "[6]; first compound 1 µM", "value": 0.673}, {"measurement": "relative viability", "setting": "[7]; first compound 0.01 µM", "value": 1.08}, {"measurement": "relative viability", "setting": "[7]; first compound 0.03162 µM", "value": 0.958}, {"measurement": "relative viability", "setting": "[7]; first compound 0.1 µM", "value": 1.23}, {"measurement": "relative viability", "setting": "[7]; first compound 0.3162 µM", "value": 1.04}, {"measurement": "relative viability", "setting": "[7]; first compound 1 µM", "value": 0.984}, {"measurement": "relative viability", "setting": "[8]; first compound 0.01 µM", "value": 0.597}, {"measurement": "relative viability", "setting": "[8]; first compound 0.03162 µM", "value": 0.541}, {"measurement": "relative viability", "setting": "[8]; first compound 0.1 µM", "value": 0.553}, {"measurement": "relative viability", "setting": "[8]; first compound 0.3162 µM", "value": 0.621}, {"measurement": "relative viability", "setting": "[8]; first compound 1 µM", "value": 0.551}, {"measurement": "relative viability", "setting": "[9]; first compound 0.01 µM", "value": 0.686}, {"measurement": "relative viability", "setting": "[9]; first compound 0.03162 µM", "value": 0.638}, {"measurement": "relative viability", "setting": "[9]; first compound 0.1 µM", "value": 0.685}, {"measurement": "relative viability", "setting": "[9]; first compound 0.3162 µM", "value": 0.638}, {"measurement": "relative viability", "setting": "[9]; first compound 1 µM", "value": 0.652}, {"measurement": "relative viability", "setting": "[10]; first compound 0.01 µM", "value": 0.59}, {"measurement": "relative viability", "setting": "[10]; first compound 0.03162 µM", "value": 0.696}, {"measurement": "relative viability", "setting": "[10]; first compound 0.1 µM", "value": 0.739}, {"measurement": "relative viability", "setting": "[10]; first compound 0.3162 µM", "value": 0.602}, {"measurement": "relative viability", "setting": "[10]; first compound 1 µM", "value": 0.572}, {"measurement": "relative viability", "setting": "[11]; first compound 0.01 µM", "value": 0.623}, {"measurement": "relative viability", "setting": "[11]; first compound 0.03162 µM", "value": 0.634}, {"measurement": "relative viability", "setting": "[11]; first compound 0.1 µM", "value": 0.721}, {"measurement": "relative viability", "setting": "[11]; first compound 0.3162 µM", "value": 0.553}, {"measurement": "relative viability", "setting": "[11]; first compound 1 µM", "value": 0.669}, {"measurement": "relative viability", "setting": "[12]; first compound 0.01 µM", "value": 0.646}, {"measurement": "relative viability", "setting": "[12]; first compound 0.03162 µM", "value": 0.654}, {"measurement": "relative viability", "setting": "[12]; first compound 0.1 µM", "value": 0.891}, {"measurement": "relative viability", "setting": "[12]; first compound 0.3162 µM", "value": 0.803}, {"measurement": "relative viability", "setting": "[12]; first compound 1 µM", "value": 0.571}, {"measurement": "relative viability", "setting": "[13]; first compound 0.01 µM", "value": 0.441}, {"measurement": "relative viability", "setting": "[13]; first compound 0.03162 µM", "value": 0.58}, {"measurement": "relative viability", "setting": "[13]; first compound 0.1 µM", "value": 0.409}, {"measurement": "relative viability", "setting": "[13]; first compound 0.3162 µM", "value": 0.523}, {"measurement": "relative viability", "setting": "[13]; first compound 1 µM", "value": 0.377}, {"measurement": "relative viability", "setting": "[14]; first compound 0.01 µM", "value": 0.445}, {"measurement": "relative viability", "setting": "[14]; first compound 0.03162 µM", "value": 0.465}, {"measurement": "relative viability", "setting": "[14]; first compound 0.3162 µM", "value": 0.403}, {"measurement": "relative viability", "setting": "[14]; first compound 1 µM", "value": 0.405}, {"measurement": "relative viability", "setting": "[15]; first compound 0.01 µM", "value": 0.753}, {"measurement": "relative viability", "setting": "[15]; first compound 0.03162 µM", "value": 0.775}, {"measurement": "relative viability", "setting": "[15]; first compound 0.1 µM", "value": 0.851}, {"measurement": "relative viability", "setting": "[15]; first compound 0.3162 µM", "value": 0.769}, {"measurement": "relative viability", "setting": "[15]; first compound 1 µM", "value": 0.749}, {"measurement": "relative viability", "setting": "[16]; first compound 0.01 µM", "value": 0.68}, {"measurement": "relative viability", "setting": "[16]; first compound 0.03162 µM", "value": 0.71}, {"measurement": "relative viability", "setting": "[16]; first compound 0.1 µM", "value": 0.808}, {"measurement": "relative viability", "setting": "[16]; first compound 0.3162 µM", "value": 0.598}, {"measurement": "relative viability", "setting": "[16]; first compound 1 µM", "value": 0.634}, {"measurement": "relative viability", "setting": "[17]; first compound 0.01 µM", "value": 0.359}, {"measurement": "relative viability", "setting": "[17]; first compound 0.03162 µM", "value": 0.432}, {"measurement": "relative viability", "setting": "[17]; first compound 0.1 µM", "value": 0.895}, {"measurement": "relative viability", "setting": "[17]; first compound 0.3162 µM", "value": 0.699}, {"measurement": "relative viability", "setting": "[17]; first compound 1 µM", "value": 0.404}, {"measurement": "relative viability", "setting": "[18]; first compound 0.03162 µM", "value": 0.457}, {"measurement": "relative viability", "setting": "[18]; first compound 0.1 µM", "value": 0.445}, {"measurement": "relative viability", "setting": "[18]; first compound 0.3162 µM", "value": 0.467}, {"measurement": "relative viability", "setting": "[18]; first compound 1 µM", "value": 0.498}, {"measurement": "relative viability", "setting": "[19]; first compound 0.01 µM", "value": 0.712}, {"measurement": "relative viability", "setting": "[19]; first compound 0.03162 µM", "value": 0.675}, {"measurement": "relative viability", "setting": "[19]; first compound 0.1 µM", "value": 0.711}, {"measurement": "relative viability", "setting": "[19]; first compound 0.3162 µM", "value": 0.709}, {"measurement": "relative viability", "setting": "[19]; first compound 1 µM", "value": 0.743}, {"measurement": "relative viability", "setting": "[20]; first compound 0.01 µM", "value": 0.673}, {"measurement": "relative viability", "setting": "[20]; first compound 0.03162 µM", "value": 0.589}, {"measurement": "relative viability", "setting": "[20]; first compound 0.1 µM", "value": 0.526}, {"measurement": "relative viability", "setting": "[20]; first compound 0.3162 µM", "value": 0.53}, {"measurement": "relative viability", "setting": "[20]; first compound 1 µM", "value": 0.598}, {"measurement": "relative viability", "setting": "[21]; first compound 0.01 µM", "value": 0.538}, {"measurement": "relative viability", "setting": "[21]; first compound 0.03162 µM", "value": 0.682}, {"measurement": "relative viability", "setting": "[21]; first compound 0.1 µM", "value": 0.524}, {"measurement": "relative viability", "setting": "[21]; first compound 0.3162 µM", "value": 0.655}, {"measurement": "relative viability", "setting": "[21]; first compound 1 µM", "value": 0.592}, {"measurement": "relative viability", "setting": "[22]; first compound 0.01 µM", "value": 0.661}, {"measurement": "relative viability", "setting": "[22]; first compound 0.03162 µM", "value": 0.756}, {"measurement": "relative viability", "setting": "[22]; first compound 0.1 µM", "value": 0.687}, {"measurement": "relative viability", "setting": "[22]; first compound 0.3162 µM", "value": 0.694}, {"measurement": "relative viability", "setting": "[22]; first compound 1 µM", "value": 0.575}]}]}
